Activity calls are given as the source filed them. No cut-off for these calls is given here.
Assays:
[1] = Cytotoxicity against green monkey Vero cells incubated for 48 hrs by resazurin dye based assay; type: toxicity, cell-based; conditions: African green monkey (Chlorocebus sabaeus)
[2] = Cytotoxicity against human […]-differentiated THP-1 cells incubated for 72 hrs by resazurin dye based assay; type: toxicity, cell-based
[3] = test system: Leishmania donovani; experiment: Antileishmanial activity against Leishmania donovani 9515 (MHOM/IN/95/9151) promastigote incubated for 48 hrs by resazurin dye based plate reader assay; type: functional, organism-based
[4] = test system: Leishmania donovani; experiment: Antileishmanial activity against Leishmania donovani 9515 (MHOM/IN/95/9151) amastigote infected in THP-1 cells assessed as inhibition of parasite growth incubated for 72 hrs by resazurin dye based plate reader assay; type: functional, organism-based; conditions: THP-1, 72 h
[5] = Selectivity index, ratio of IC50 for african green monkey Vero cells to IC50 for static antileishmanial activity against Leishmania donovani 9515 (MHOM/IN/95/9151) amastigote; type: toxicity, cell-based; conditions: read-out: Ratio IC50
[6] = Selectivity index, ratio of IC50 for human THP-1 cells to IC50 for static antileishmanial activity against Leishmania donovani 9515 (MHOM/IN/95/9151) amastigote; type: toxicity, cell-based; conditions: read-out: Ratio IC50
[7] = test system: Leishmania donovani; experiment: Leishmanicidal activity against Leishmania donovani 9515 (MHOM/IN/95/9151) amastigote infected in THP-1 cells incubated for 72 hrs by resazurin dye based plate reader assay; type: functional, organism-based; conditions: THP-1, 72 h
[8] = Selectivity index, ratio of IC50 for african green monkey Vero cells to IC50 for leishmanicidal activity against Leishmania donovani 9515 (MHOM/IN/95/9151) amastigote; type: toxicity, cell-based; conditions: read-out: Ratio IC50
[9] = Selectivity index, ratio of IC50 for human THP-1 cells to IC50 for leishmanicidal activity against Leishmania donovani 9515 (MHOM/IN/95/9151) amastigote; type: toxicity, cell-based; conditions: read-out: Ratio IC50
[10] = test system: Leishmania major; experiment: Antileishmanial activity against Leishmania major IR-173 (MHO-M/IR/-173) promastigote incubated for 48 hrs by resazurin dye based plate reader assay; type: functional, organism-based
[11] = Selectivity index, ratio of IC50 for african green monkey Vero cells to IC50 for Leishmania major IR-173 (MHO-M/IR/-173) promastigote; type: toxicity, cell-based; conditions: read-out: Ratio IC50
[12] = Selectivity index, ratio of IC50 for human THP-1 cells to IC50 for Leishmania major IR-173 (MHO-M/IR/-173) promastigote; type: toxicity, cell-based; conditions: read-out: Ratio IC50
[13] = test system: Leishmania major; experiment: Antileishmanial activity against Leishmania major NIH-S (MHOM/SN/74/Seidman) amastigote infected in THP-1 cells assessed as inhibition of parasite growth incubated for 72 hrs by resazurin dye based plate reader assay; type: functional, organism-based; conditions: THP-1, 72 h
[14] = test system: Leishmania major; experiment: Leishmanicidal activity against Leishmania major NIH-S (MHOM/SN/74/Seidman) amastigote incubated for 48 hrs by resazurin dye based plate reader assay; type: functional, organism-based
[15] = Cytotoxicity against MDBK cells incubated for 72 hrs by CCK8 assay; type: toxicity, cell-based, Bos taurus; conditions: cattle, MDBK cells
[16] = test system: Trypanosoma brucei gambiense; experiment: Trypanocidal activity against Trypanosoma brucei gambiense IL1922 incubated for 72 hrs by CellTiter-Glo reagent based […] analysis; type: functional, organism-based; conditions: IL1922, 72 h
[17] = test system: Trypanosoma brucei rhodesiense; experiment: Trypanocidal activity against Trypanosoma brucei rhodesiense IL1501 incubated for 72 hrs by CellTiter-Glo reagent based […] analysis; type: functional, organism-based; conditions: IL1501, 72 h
[18] = test system: Trypanosoma brucei brucei; experiment: Trypanocidal activity against Trypanosoma brucei brucei GUTat3.1 incubated for 72 hrs by CellTiter-Glo reagent based […] analysis; type: functional, organism-based; conditions: GUTat3.1, 72 h
[19] = test system: Trypanosoma congolense; experiment: Trypanocidal activity against Trypanosoma congolense IL3000 incubated for 72 hrs by CellTiter-Glo reagent based […] analysis; type: functional, organism-based; conditions: IL3000, 72 h
[20] = test system: Trypanosoma evansi; experiment: Trypanocidal activity against Trypanosoma evansi Tansui incubated for 72 hrs by CellTiter-Glo reagent based […] analysis; type: functional, organism-based
[21] = test system: Trypanosoma equiperdum; experiment: Trypanocidal activity against Trypanosoma equiperdum IVM-t1 incubated for 72 hrs by CellTiter-Glo reagent based […] analysis; type: functional, organism-based; conditions: IVM-t1, 72 h
[22] = Selectivity index, ratio of CC50 for MDBK to IC50 for Trypanosoma congolense IL3000; type: toxicity, cell-based; conditions: cattle, MDBK cells; read-out: Ratio CC50/IC50
[23] = test system: Trypanosoma cruzi; experiment: Antitrypanosomal activity against Trypanosoma cruzi Tulahuen C4 strain trypomastigotes assessed as growth inhibition at 20 uM incubated for 48 hrs by resazurin dye based assay; type: functional; design: scale not given: the % may be the effect or the level left
[24] = test system: Trypanosoma cruzi; experiment: Antitrypanosomal activity against Trypanosoma cruzi Tulahuen C4 strain amastigotes infected in Vero cells incubated for 72 hrs by beta-galactosidase based assay; type: functional, organism-based
[25] = Selectivity index, ratio of IC50 for african green monkey Vero cells to IC50 for Leishmania donovani; type: toxicity, cell-based; conditions: read-out: Ratio IC50
[26] = Selectivity index, ratio of IC50 for african green monkey Vero cells to IC50 for Leishmania donovani 9515 (MHOM/IN/95/9151) promastigote; type: toxicity, cell-based; conditions: read-out: Ratio IC50
[27] = Selectivity index, ratio of IC50 for human THP-1 cells to IC50 for Leishmania donovani 9515 (MHOM/IN/95/9151) promastigote; type: toxicity, cell-based; conditions: read-out: Ratio IC50
[28] = Selectivity index, ratio of IC50 for african green monkey Vero cells to IC50 for static antileishmanial activity against Leishmania major NIH-S (MHOM/SN/74/Seidman) amastigote; type: toxicity, cell-based; conditions: read-out: Ratio IC50
[29] = Selectivity index, ratio of IC50 for human THP-1 cells to IC50 for static antileishmanial activity against Leishmania major NIH-S (MHOM/SN/74/Seidman) amastigote; type: toxicity, cell-based; conditions: read-out: Ratio IC50
[30] = Selectivity index, ratio of IC50 for african green monkey Vero cells to IC50 for leishmanicidal activity against Leishmania major NIH-S (MHOM/SN/74/Seidman) amastigote; type: toxicity, cell-based; conditions: read-out: Ratio IC50
[31] = Selectivity index, ratio of IC50 for human THP-1 cells to IC50 for leishmanicidal activity against Leishmania major NIH-S (MHOM/SN/74/Seidman); type: toxicity, cell-based; conditions: read-out: Ratio IC50
[32] = Selectivity index, ratio of CC50 for MDBK to IC50 for Trypanosoma brucei gambiense IL1922; type: toxicity, cell-based; conditions: cattle, MDBK cells; read-out: Ratio CC50/IC50
[33] = Selectivity index, ratio of CC50 for MDBK to IC50 for Trypanosoma brucei rhodesiense IL1501; type: toxicity, cell-based; conditions: cattle, MDBK cells; read-out: Ratio CC50/IC50
[34] = Selectivity index, ratio of CC50 for MDBK to IC50 for Trypanosoma brucei brucei GUTat3.1; type: toxicity, cell-based; conditions: cattle, MDBK cells; read-out: Ratio CC50/IC50
[35] = Selectivity index, ratio of CC50 for MDBK to IC50 for Trypanosoma evansi Tansui; type: toxicity, cell-based; conditions: cattle, MDBK cells; read-out: Ratio CC50/IC50
[36] = Selectivity index, ratio of CC50 for MDBK to IC50 for Trypanosoma equiperdum IVM-t1; type: toxicity, cell-based; conditions: cattle, MDBK cells; read-out: Ratio CC50/IC50
[37] = Selectivity index, ratio of IC50 for african green monkey Vero cells to IC50 for Trypanosoma cruzi Tulahuen C4 strain; type: toxicity, cell-based; conditions: read-out: Ratio IC50
[38] = Selectivity index, ratio of IC50 for human THP-1 cells to IC50 for Trypanosoma cruzi Tulahuen C4 strain; type: toxicity, cell-based; conditions: read-out: Ratio IC50
[39] = test system: Trypanosoma congolense; experiment: Antitrypanosomal activity against Trypanosoma congolense IL3000 infected in BALB/c mouse assessed as increase in animal survival time at 100 mg/kg, po or 10 mg/kg, ip administered for 7 consecutive days starting from 6 days post infection (reference value: 9 day); type: functional; conditions: time 7 day
[40] = test system: Trypanosoma congolense; experiment: Antitrypanosomal activity against Trypanosoma congolense IL3000 infected in BALB/c mouse assessed as animal survival at 100 mg/kg, po or 10 mg/kg, ip administered for 7 consecutive days starting from 6 days post infection and measured after 13 days post infection; type: functional, organism-based; conditions: time 7.0 day

Compound | IC50 at 48 h [1] [nM] | IC50 at 72 h [2] [nM] | IC50 [3] [nM] | IC50 [4] [nM] | selectivity ratio [5] | selectivity ratio [6] | IC50 [7] [nM] | selectivity ratio [8] | selectivity ratio [9] | IC50 [10] [nM] | IC50 [13] [nM] | IC50 [14] [nM] | CC50 at 72 h [15] [nM] | IC50 [16] [nM] | IC50 [17] [nM] | IC50 [18] [nM] | IC50 [19] [nM] | IC50 [20] [nM] | IC50 [21] [nM] | selectivity ratio [22] | further results
C#CCn1cc(\C=N/N=C/C=C/c2ccccc2)c2cc([N+](=O)[O-])ccc21 | 24500 | 35800 | > 10000 | 340 | 75 | 75 | 690 | 37 | 52 | 8080 | > 10000 | > 10000 | 9200 | > 70200 | > 70200 | > 70200 | 9400 | > 70200 | > 70200 | > 29.9 | selectivity ratio [11]: 3; selectivity ratio [12]: 4
O=C(Cn1ccnc1[N+](=O)[O-])NCc1ccccc1 [BENZNIDAZOLE] | – | – | – | – | – | – | – | – | – | – | – | – | – | – | – | – | – | – | – | – | Activity [23]: 100%; IC50 [24]: 2700 nM
O=[N+]([O-])c1ccc(/C=N/N=C/c2ccc(OCc3ccccc3)cc2)o1 | – | – | – | – | – | – | – | – | – | – | – | – | – | – | – | – | – | – | – | – | selectivity ratio [25]: 400
C#CCn1cc(/C=N\N=C\c2ccc([N+](=O)[O-])o2)c2cc([N+](=O)[O-])ccc21 | 8070 | 66300 | 200 | 3270 | 2 | 20 | 3290 | 2 | 20 | 80 | 1090 | 1410 | > 274000 | 680 | 750 | 1240 | 80 | 1960 | 1880 | > 3280 | selectivity ratio [26]: 40; selectivity ratio [27]: 332; selectivity ratio [11]: 106; selectivity ratio [12]: 829; selectivity ratio [28]: 7; selectivity ratio [29]: 60; selectivity ratio [30]: 6; selectivity ratio [31]: 47; selectivity ratio [32]: > 405; selectivity ratio [33]: > 364; selectivity ratio [34]: > 222; selectivity ratio [35]: > 140; selectivity ratio [36]: > 146; Activity [23]: 22%; IC50 [24]: 1210 nM; selectivity ratio [37]: 6; selectivity ratio [38]: 55; Survival [39]: 9.5 days; Activity [40]: inactive
C#CCn1cc(/C=N\N=C\c2ccc([N+](=O)[O-])s2)c2cc([N+](=O)[O-])ccc21 | 51100 | > 100000 | 1950 | 2340 | 22 | 42 | 3510 | 15 | > 28 | > 10000 | 360 | 1740 | > 263000 | 250 | 350 | 330 | 90 | 300 | 340 | > 2950 | selectivity ratio [26]: 26; selectivity ratio [27]: 51; selectivity ratio [28]: 142; selectivity ratio [29]: 278; selectivity ratio [30]: 25; selectivity ratio [31]: 58; selectivity ratio [32]: > 1070; selectivity ratio [33]: > 753; selectivity ratio [34]: > 790; selectivity ratio [35]: > 864; selectivity ratio [36]: > 780; Activity [23]: 59%; IC50 [24]: 820 nM; selectivity ratio [37]: 62; selectivity ratio [38]: 121; Survival [39]: 10.5 days; Activity [40]: inactive
O=Cc1ccc([N+](=O)[O-])o1 | – | – | – | – | – | – | – | – | – | – | – | – | – | – | – | – | – | – | – | – | selectivity ratio [25]: 2
